Data reported in ChEMBL document CHEMBL3286252, “Synthesis, biological evaluation and structure-activity relationship of new GABA uptake inhibitors, derivatives of 4-aminobutanamides” (Eur J Med Chem, 2014).

Assays:
[1] = Retardation factor of the compound using 25%NH3/MeOH/DCM/PE at ratio of 45:225:600:90 as solvent system by thin layer chromatography; format: physicochemical
[2] = target: T1, Sodium- and chloride-dependent GABA transporter 1 (Mus musculus, UniProt P31648); assay: Inhibition of mouse GAT1 expressed in HEK293 cells assessed as decrease in [3H]GABA uptake; format: cell-based
GABA transporter 2 = target: T2, GABA transporter 2 (Mus musculus, UniProt P31651); assay: Inhibition of mouse GAT2 expressed in HEK293 cells assessed as decrease in [3H]GABA uptake; format: cell-based
T2 sequence (P31651 whole entry): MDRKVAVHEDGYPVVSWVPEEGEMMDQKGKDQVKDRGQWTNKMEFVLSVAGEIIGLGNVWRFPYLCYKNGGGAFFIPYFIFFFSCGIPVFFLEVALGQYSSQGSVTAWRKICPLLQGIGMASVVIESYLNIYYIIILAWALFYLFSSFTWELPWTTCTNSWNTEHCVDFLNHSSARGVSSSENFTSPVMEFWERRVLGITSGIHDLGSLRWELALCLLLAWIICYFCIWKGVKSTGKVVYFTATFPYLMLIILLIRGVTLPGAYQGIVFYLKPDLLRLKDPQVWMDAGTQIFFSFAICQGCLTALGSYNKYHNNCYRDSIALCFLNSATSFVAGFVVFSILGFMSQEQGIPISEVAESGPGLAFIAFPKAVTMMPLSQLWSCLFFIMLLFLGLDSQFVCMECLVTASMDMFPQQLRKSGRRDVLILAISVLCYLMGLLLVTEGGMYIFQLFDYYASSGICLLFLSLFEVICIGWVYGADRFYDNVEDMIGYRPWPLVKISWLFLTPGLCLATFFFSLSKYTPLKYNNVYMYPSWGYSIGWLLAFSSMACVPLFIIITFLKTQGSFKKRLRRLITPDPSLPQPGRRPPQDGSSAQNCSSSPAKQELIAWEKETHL

GABA transporter 3 = target: T3, GABA transporter 3 (Mus musculus, UniProt P31649); assay: Inhibition of mouse GAT3 expressed in HEK293 cells assessed as decrease in [3H]GABA uptake; format: cell-based
T3 sequence (P31649 whole entry): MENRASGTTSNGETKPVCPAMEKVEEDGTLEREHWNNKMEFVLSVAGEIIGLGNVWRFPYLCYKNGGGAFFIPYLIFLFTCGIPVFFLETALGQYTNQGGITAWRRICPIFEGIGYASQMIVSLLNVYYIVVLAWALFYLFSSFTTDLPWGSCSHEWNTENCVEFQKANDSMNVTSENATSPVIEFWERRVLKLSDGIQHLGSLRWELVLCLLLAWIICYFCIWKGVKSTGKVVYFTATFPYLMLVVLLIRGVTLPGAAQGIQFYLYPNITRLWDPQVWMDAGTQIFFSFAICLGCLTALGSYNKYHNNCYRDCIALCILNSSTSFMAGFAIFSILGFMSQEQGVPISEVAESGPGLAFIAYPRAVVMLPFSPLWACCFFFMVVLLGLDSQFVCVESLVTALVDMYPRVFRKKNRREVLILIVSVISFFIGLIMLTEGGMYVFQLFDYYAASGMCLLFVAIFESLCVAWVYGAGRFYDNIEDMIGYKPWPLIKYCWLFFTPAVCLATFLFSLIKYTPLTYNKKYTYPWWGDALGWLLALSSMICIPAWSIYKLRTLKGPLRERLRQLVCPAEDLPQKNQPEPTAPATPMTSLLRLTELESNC

GABA transporter 4 = target: T4, GABA transporter 4 (Mus musculus, UniProt P31650); assay: Inhibition of mouse GAT4 expressed in HEK293 cells assessed as decrease in [3H]GABA uptake; format: cell-based
T4 sequence (P31650 whole entry): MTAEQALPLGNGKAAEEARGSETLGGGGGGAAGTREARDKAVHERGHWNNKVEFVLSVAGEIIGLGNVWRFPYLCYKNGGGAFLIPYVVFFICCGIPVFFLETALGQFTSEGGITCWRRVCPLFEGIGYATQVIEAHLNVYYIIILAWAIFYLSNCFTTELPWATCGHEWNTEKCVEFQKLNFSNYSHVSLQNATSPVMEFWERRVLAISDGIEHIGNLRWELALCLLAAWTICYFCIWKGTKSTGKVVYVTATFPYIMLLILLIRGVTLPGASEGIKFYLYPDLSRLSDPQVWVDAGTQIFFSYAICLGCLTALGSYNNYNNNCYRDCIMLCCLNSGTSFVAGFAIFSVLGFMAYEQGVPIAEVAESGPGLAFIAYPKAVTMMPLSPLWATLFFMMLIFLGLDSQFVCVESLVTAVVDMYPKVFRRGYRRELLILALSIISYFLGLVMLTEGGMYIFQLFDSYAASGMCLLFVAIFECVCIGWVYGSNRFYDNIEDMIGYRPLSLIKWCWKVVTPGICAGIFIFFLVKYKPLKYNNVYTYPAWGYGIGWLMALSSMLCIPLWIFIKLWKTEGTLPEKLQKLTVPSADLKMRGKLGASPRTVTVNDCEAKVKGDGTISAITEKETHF

[3] = target: T1, Sodium- and chloride-dependent GABA transporter 1; assay: Displacement of NO711 from mouse GAT1 expressed in HEK293 cells by LC-MS/MS analysis; format: cell-based
[4] = Retardation factor of the compound using hexane/ethanol/TEA at ratio of 7:2:1 as solvent system by thin layer chromatography; format: physicochemical
[5] = target: Sodium- and chloride-dependent GABA transporter 1 (Mus musculus) (UniProt P31648); assay: Displacement of NO711 from mouse GAT1 expressed in HEK293 cells assessed as NO711 binding at 100 uM by LC-MS/MS analysis; format: cell-based

SMILES | Rf [1] | IC50 [2] [µM] | IC50 (GABA transporter 2) [µM] | IC50 (GABA transporter 3) [µM] | IC50 (GABA transporter 4) [µM] | Ki [3] [µM] | Rf [4] | Activity [5] [%]
NCCC(C(=O)NCc1ccccc1)N1CCC(C(c2ccccc2)c2ccccc2)CC1 (stereo not drawn) | 0.92 | 19.5 | 12 | 20.4 | 20 | 32.4 | – | –
NCCC(C(=O)NCc1ccc(F)cc1)N1CCN(C(c2ccccc2)c2ccccc2)CC1 (stereo not drawn) | 0.12 | 23.4 | 30.9 | 33.9 | 37.2 | 66.1 | – | –
CN(CCCC(c1ccccc1)c1ccccc1)C(CCN)C(=O)NCc1ccc(F)cc1 (stereo not drawn) | – | 16.6 | 11.5 | 26.9 | 13.5 | 21.4 | 0.22 | –
Cc1ccc(CNC(=O)C(CCN)N(C)CCCC(c2ccccc2)c2ccccc2)cc1 (stereo not drawn) | – | 12.3 | 14.1 | 22.9 | 8.32 | 15.5 | 0.17 | –
NCCC(C(=O)NCc1ccccc1Cl)N1CCC(C(c2ccccc2)c2ccccc2)CC1 (stereo not drawn) | 0.79 | 13.8 | 5.89 | 11 | 10.2 | 25.7 | – | –
Cc1ccc(CNC(=O)C(CCN)N(C)CCC=C(c2ccccc2)c2ccccc2)cc1 (stereo not drawn) | 0.84 | 8.51 | 9.55 | 12 | 9.77 | 9.12 | – | –
NCCC(C(=O)NCc1ccc(Cl)cc1)N1CCC(C(c2ccccc2)c2ccccc2)CC1 (stereo not drawn) | 0.77 | 11.2 | 9.77 | 9.55 | 10.2 | 30.2 | – | –
Cc1ccc(CNC(=O)C(CCN)N2CCC(C(c3ccccc3)c3ccccc3)CC2)cc1 (stereo not drawn) | 0.92 | 13.2 | 7.94 | 14.5 | 7.41 | 16.6 | – | –
NCCC(NCCC=C(c1ccccc1)c1ccccc1)C(=O)NCc1ccc(Cl)cc1 (stereo not drawn) | – | 16.6 | 9.55 | 17.8 | 11.7 | 16.2 | 0.14 | –
CN(CCC=C(c1ccccc1)c1ccccc1)C(CCN)C(=O)NCc1ccccc1 (stereo not drawn) | 0.74 | 18.6 | 12 | 24 | 15.8 | 12.6 | – | –
NCCC(C(=O)NCc1ccc(F)cc1)N1CCC(C(c2ccccc2)c2ccccc2)CC1 (stereo not drawn) | 0.9 | 15.8 | 9.33 | 21.4 | 8.51 | 33.9 | – | –
NCCC(C(=O)NCc1ccccc1)N1CCN(C(c2ccccc2)c2ccccc2)CC1 (stereo not drawn) | 0.15 | 44.7 | 38 | 26.9 | 58.9 | – | – | 83
NCCC(C(=O)NCc1ccc(Cl)cc1)N1CCC(=C(c2ccccc2)c2ccccc2)CC1 (stereo not drawn) | 0.8 | 11 | 10.5 | 12.9 | 12 | 24 | – | –
NCCC(NCCC=C(c1ccccc1)c1ccccc1)C(=O)NCc1ccc(F)cc1 (stereo not drawn) | – | 27.5 | 12 | 24.5 | 31.6 | 22.9 | 0.15 | –
NCCC(C(=O)NCc1ccccc1Cl)N1CCC(=C(c2ccccc2)c2ccccc2)CC1 (stereo not drawn) | 0.78 | 13.5 | 10.2 | 15.5 | 11 | 10.5 | – | –
NCCC(NCCC=C(c1ccccc1)c1ccccc1)C(=O)NCc1ccccc1Cl (stereo not drawn) | – | 15.8 | 6.92 | 24 | 10.2 | – | 0.15 | 53
CN(CCCC(c1ccccc1)c1ccccc1)C(CCN)C(=O)NCc1ccccc1Cl (stereo not drawn) | – | 12.6 | 7.76 | 19.1 | 11.5 | 21.4 | 0.15 | –
CN(CCC=C(c1ccccc1)c1ccccc1)C(CCN)C(=O)NCc1ccc(Cl)cc1 (stereo not drawn) | 0.73 | 12.9 | 9.77 | 11.2 | 12.6 | 11.2 | – | –
Cc1ccc(CNC(=O)C(CCN)NCCC=C(c2ccccc2)c2ccccc2)cc1 (stereo not drawn) | – | 19.5 | 8.91 | 29.5 | 15.1 | 11 | 0.16 | –
NCCC(NCCC=C(c1ccccc1)c1ccccc1)C(=O)NCc1ccccc1 (stereo not drawn) | – | 30.9 | 7.94 | 33.1 | 25.7 | 17.4 | 0.16 | –
Cc1ccc(CNC(=O)C(CCN)N2CCC(=C(c3ccccc3)c3ccccc3)CC2)cc1 (stereo not drawn) | 0.73 | 11.2 | 5.89 | 16.2 | 11.5 | 29.5 | – | –
Cc1ccc(CNC(=O)C(CCN)N2CCN(C(c3ccccc3)c3ccccc3)CC2)cc1 (stereo not drawn) | 0.18 | 28.2 | 30.2 | 18.2 | 23.4 | 63.1 | – | –
CN(CCCC(c1ccccc1)c1ccccc1)C(CCN)C(=O)NCc1ccccc1 (stereo not drawn) | – | 22.4 | 9.55 | 29.5 | 25.7 | 30.9 | 0.12 | –
NCCC(C(=O)NCc1ccc(F)cc1)N1CCC(=C(c2ccccc2)c2ccccc2)CC1 (stereo not drawn) | 0.77 | 11 | 10.2 | 12.3 | 13.5 | 25.1 | – | –
NCCC(C(=O)NCc1ccccc1)N1CCC(=C(c2ccccc2)c2ccccc2)CC1 (stereo not drawn) | 0.74 | 11 | 15.5 | 13.8 | 12 | 16.6 | – | –
CN(CCC=C(c1ccccc1)c1ccccc1)C(CCN)C(=O)NCc1ccc(F)cc1 (stereo not drawn) | 0.79 | 13.8 | 12.9 | 11 | 12.6 | 15.8 | – | –
CN(CCCC(c1ccccc1)c1ccccc1)C(CCN)C(=O)NCc1ccc(Cl)cc1 (stereo not drawn) | – | 17.4 | 17.4 | 21.4 | 14.5 | 17.8 | 0.1 | –
CN(CCC=C(c1ccccc1)c1ccccc1)C(CCN)C(=O)NCc1ccccc1Cl (stereo not drawn) | 0.76 | 12.9 | 6.46 | 10 | 9.12 | 11 | – | –
